In patent US7732603B2, “Organic compounds as agents for the treatment of aldosterone mediated conditions” (Novartis AG, priority 2002, dated 2010):
Structures can show the parent of a compound that is named as a salt.

Compound	melting point
Cl.N#Cc1ccc(C2C(=O)N(Cc3ccc(Cl)cc3)Cc3cncn32)cc1 (stereo not shown)	245 to 246 °C
Cl.N#Cc1ccc(C2C(=O)N(Cc3ccc(C(F)(F)F)cc3)Cc3cncn32)cc1 (stereo not shown)	234 to 236 °C
Cc1cccc(CN2Cc3cncn3C(c3ccc(C#N)cc3)C2=O)c1.Cl (stereo not shown)	275 to 277 °C
Cl.N#Cc1ccc(C2C(=O)N(Cc3cccc(C(F)(F)F)c3)Cc3cncn32)cc1 (stereo not shown)	250 to 252 °C
Cl.O=C1C(c2ccccc2)n2cncc2CN1Cc1ccccc1 (stereo not shown)	249 to 251 °C
CN1Cc2cncn2C(c2ccccc2)C1=O.Cl (stereo not shown)	252 to 254 °C
CN1Cc2cncn2C(c2ccc(C#N)cc2)C1=O.Cl (stereo not shown)	222 to 224 °C
Cl.O=C1C(c2ccc(Br)cc2)n2cncc2CN1CC1CC1 (stereo not shown)	223 to 225 °C
Cl.O=C1C(c2ccc(Br)cc2)n2cncc2CN1Cc1ccccc1 (stereo not shown)	250 °C (dec.)
Cl.O=C1C(c2ccc(Br)cc2)n2cncc2CN1Cc1ccc(Cl)cc1 (stereo not shown)	158 to 159 °C
Cl.O=C1C(c2ccc(Br)cc2)n2cncc2CN1Cc1ccc(C(F)(F)F)cc1 (stereo not shown)	113 to 114 °C
COc1ccc(N2Cc3cncn3C(c3ccc(Br)cc3)C2=O)cc1.Cl (stereo not shown)	149 to 150 °C
Cl.O=C1C(c2ccc(Br)cc2)n2cncc2CN1CCc1ccc(F)cc1 (stereo not shown)	136 to 138 °C
Cl.O=C1C(c2ccc(Br)cc2)n2cncc2CN1Cc1ccc(F)cc1 (stereo not shown)	205 to 207 °C
CN1Cc2cncn2C(c2cccc(Br)c2)C1=O.Cl (stereo not shown)	265 °C (dec.)
O=C(O)C(=O)O.O=C1C(c2cccc(Br)c2)n2cncc2CN1C1CCCCC1 (stereo not shown)	129 to 131 °C
Cl.O=C1C(c2cccc(Br)c2)n2cncc2CN1Cc1ccccc1 (stereo not shown)	249 to 251 °C
COc1ccc(CN2Cc3cncn3C(c3cccc(Br)c3)C2=O)cc1.Cl (stereo not shown)	246 to 248 °C
Cl.O=C1C(c2cccc(Br)c2)n2cncc2CN1Cc1ccc(F)cc1 (stereo not shown)	246 to 248 °C
Cl.O=C1C(c2cccc(Br)c2)n2cncc2CN1Cc1ccc(Cl)cc1 (stereo not shown)	268 to 270 °C
Cc1ccc(CN2Cc3cncn3C(c3cccc(Br)c3)C2=O)cc1.Cl (stereo not shown)	265 to 267 °C

Compound	melting point
Cl.O=C1C(c2cccc(Br)c2)n2cncc2CN1Cc1ccc(C(F)(F)F)cc1 (stereo not shown)	269 to 271 °C
Cl.O=C1C(c2cccc(Br)c2)n2cncc2CN1Cc1cccc(C(F)(F)F)c1 (stereo not shown)	246 to 248 °C
Cl.O=C1C(c2cccc(Br)c2)n2cncc2CN1Cc1cccc(F)c1 (stereo not shown)	240 to 243 °C
Cc1cccc(CN2Cc3cncn3C(c3cccc(Br)c3)C2=O)c1.Cl (stereo not shown)	248 to 249 °C
Cl.O=C1C(c2cccc(Br)c2)n2cncc2CN1CCc1ccccc1 (stereo not shown)	205 to 207 °C
COc1ccc(CCN2Cc3cncn3C(c3cccc(Br)c3)C2=O)cc1.Cl (stereo not shown)	202 to 204 °C
Cl.O=C1C(c2cccc(Br)c2)n2cncc2CN1CCc1ccc(Cl)cc1 (stereo not shown)	225 to 226 °C
Cl.O=C1C(c2cccc(Br)c2)n2cncc2CN1CCc1cccc(Cl)c1 (stereo not shown)	184 to 186 °C
Cc1ccc(CCN2Cc3cncn3C(c3cccc(Br)c3)C2=O)cc1.Cl (stereo not shown)	197 to 199 °C
Cl.O=C1C(c2cccc(Br)c2)n2cncc2CN1CCc1ccc(F)cc1 (stereo not shown)	179 to 180 °C
Cl.O=C1C(c2cccc(Br)c2)n2cncc2CN1Cc1cccs1 (stereo not shown)	233 to 235 °C
Cl.O=C1C(c2cccc(Br)c2)n2cncc2CN1Cc1ccco1 (stereo not shown)	215 to 218 °C
Cl.O=C1Cn2cncc2CN1Cc1ccccc1	201 to 204 °C
Cc1ccc(CN2Cc3cncn3C(c3cccc(C#N)c3)C2=O)cc1.Cl (stereo not shown)	260 to 263 °C
Cl.N#Cc1cccc(C2C(=O)N(Cc3ccc(F)cc3)Cc3cncn32)c1 (stereo not shown)	260 to 263 °C
Cl.N#Cc1cccc(C2C(=O)N(Cc3ccc(Cl)cc3)Cc3cncn32)c1 (stereo not shown)	236 to 238 °C
Cl.N#Cc1ccc(C2C(=O)N(CCc3ccc(F)cc3)Cc3cncn32)cc1 (stereo not shown)	160 to 162 °C
COc1ccc(CN2Cc3cncn3C(c3cccc(C#N)c3)C2=O)cc1.Cl (stereo not shown)	246 to 248 °C
Cl.N#Cc1cccc(C2C(=O)N(CCc3ccc(F)cc3)Cc3cncn32)c1 (stereo not shown)	221 to 223 °C
Cl.N#Cc1cccc(C2C(=O)N(CCc3ccccc3)Cc3cncn32)c1 (stereo not shown)	203 to 205 °C
Cl.N#Cc1cccc(C2C(=O)N(CC3CC3)Cc3cncn32)c1 (stereo not shown)	225 to 227 °C

Compound	melting point
COc1ccc(CN2Cc3cncn3C(c3ccc(-c4ccc(Cl)cc4)cc3)C2=O)cc1.Cl (stereo not shown)	270 to 273 °C
Cl.O=C1C(c2ccc(-c3ccsc3)cc2)n2cncc2CN1CC1CC1 (stereo not shown)	217 to 219 °C
Cl.O=C1C(c2cccc(-c3ccc(F)cc3)c2)n2cncc2CN1Cc1ccccc1 (stereo not shown)	235 to 237 °C
Cl.O=C1C(c2cccc(-c3ccccc3)c2)n2cncc2CN1Cc1ccccc1 (stereo not shown)	232 to 234 °C
Cl.Cl.N#Cc1ccc(C2C(=O)N(CCCN3CCOCC3)Cc3cncn32)cc1 (stereo not shown)	246 to 248 °C
COC(=O)c1ccc(C2C(=O)N(Cc3ccccc3)Cc3cncn32)cc1.Cl (stereo not shown)	236 to 238 °C
CC1(c2ccc(C#N)cc2)C(=O)N(Cc2ccccc2)Cc2cncn21.Cl (stereo not shown)	230 to 232 °C
CC1(c2ccc(Br)cc2)C(=O)N(CC2CC2)Cc2cncn21.Cl (stereo not shown)	228 to 230 °C
CC1(c2cccc(Br)c2)C(=O)N(CC2CC2)Cc2cncn21.Cl (stereo not shown)	234 to 236 °C
CC1(c2ccc(Br)cc2)C(=O)N(Cc2ccc(F)cc2)Cc2cncn21.Cl (stereo not shown)	235 to 237 °C
Brc1ccc(C2CN(Cc3ccccc3)Cc3cncn32)cc1 (stereo not shown) (as salt: toluene sulfonate) [Example 91, 5-(4-Bromophenyl)-7-benzyl-5,6,7,8-tetrahydro-imidazo[1,5-a]pyrazine p-toluene sulfonate]	223 to 225 °C
C[C@H](c1ccccc1)N1Cc2cncn2C(c2cccc(Br)c2)C1=O (single isomer, unassigned; (+)) [Example 58]	45 to 50 °C
C[C@H](c1ccccc1)N1Cc2cncn2C(c2ccc(Br)cc2)C1=O (single isomer, unassigned; (+)) [Example 60]	147 to 148 °C
C[C@@H](c1ccccc1)N1Cc2cncn2C(c2cccc(Br)c2)C1=O (single isomer, unassigned; (-)) [Example 59]	55 to 70 °C
C[C@@H](c1ccccc1)N1Cc2cncn2C(c2ccc(Br)cc2)C1=O (single isomer, unassigned; (-)) [Example 61]	167 to 168 °C
C[C@@H](c1ccccc1)N1Cc2cncn2C(c2ccc(C#N)cc2)C1=O (single isomer, unassigned; (-)) [Example 62]	157 to 158 °C
C=CCN1Cc2cncn2C(c2ccc(C#N)cc2)C1=O (stereo not shown) [Example 4, 4-(7-Allyl-6-oxo-5,6,7,8-tetrahydro-imidazo[1,5-a]pyrazin-5-yl)-benzonitrile]	107 to 109 °C
CCCN1Cc2cncn2C(c2ccc(C#N)cc2)C1=O (stereo not shown) [Example 5, 4-(6-Oxo-7-propyl-5,6,7,8-tetrahydro-imidazo[1,5-a]pyrazin-5-yl)-benzonitrile]	97 to 98 °C
CC(C)N1Cc2cncn2C(c2ccc(C#N)cc2)C1=O (stereo not shown) [Example 6, 4-(7-Isopropyl-6-oxo-5,6,7,8-tetrahydro-imidazo[1,5-a]pyrazin-5-yl)-benzonitrile]	122 to 124 °C
